Measurements from ChEMBL document CHEMBL1134452, “Novel inhibitors of mitochondrial respiratory chain: endoperoxides from the marine tunicate Stolonica socialis” (J Med Chem, 2001).

Assay: Compound was tested for inhibitory activity on mitochondrial electron transport using submitochondrial particles (SMP) from beef heart.
Format: functional, Bos taurus

Compound	IC50 [nM]
C=CCC/C=C/C=C/CCCCCC[C@@H]1CC[C@@H]([C@@H]2CC[C@@H](CC(=O)OC)OO2)O1	< 1000
C=CCC/C=C/C=C/CCCCCC[C@H]1CC[C@H]([C@@H]2CC[C@@H](CC(=O)OC)OO2)O1	< 1000
